Experimental data published in patent US9371294B2, “Cycloalkenyl aryl derivatives for CETP inhibitor” (CHONG KUN DANG PHARMACEUTICAL CORP., priority 2011, dated 2016).

The molecules below were run against T1, cholesteryl ester transfer protein (Homo sapiens, UniProt P11597) (assay: In vitro test for the ability to inhibit cholesteryl ester transfer). Conditions: [3H]-cholesteryl oleate transfer from rHDL-agarose to LDL; human plasma as CETP source; 37° C.; 16-10000 nM, duplicate.
T1 construct: As a source of cholesteryl ester transfer protein, plasma from healthy humans was used; from tissue; host or cells: plasma from healthy humans
T1 sequence (P11597 18-493): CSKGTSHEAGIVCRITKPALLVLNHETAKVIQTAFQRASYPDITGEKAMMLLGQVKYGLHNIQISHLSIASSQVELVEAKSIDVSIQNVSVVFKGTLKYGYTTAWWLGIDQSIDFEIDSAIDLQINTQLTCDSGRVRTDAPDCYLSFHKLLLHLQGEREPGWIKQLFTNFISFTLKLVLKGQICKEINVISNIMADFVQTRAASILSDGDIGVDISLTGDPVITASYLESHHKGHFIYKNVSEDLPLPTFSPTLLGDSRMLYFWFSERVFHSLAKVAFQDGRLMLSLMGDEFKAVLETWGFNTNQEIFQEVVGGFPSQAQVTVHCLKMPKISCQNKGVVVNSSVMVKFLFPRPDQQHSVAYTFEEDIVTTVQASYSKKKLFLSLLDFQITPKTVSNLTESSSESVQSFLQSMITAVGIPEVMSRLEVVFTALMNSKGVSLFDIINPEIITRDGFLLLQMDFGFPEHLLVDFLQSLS
Format: biochemical
Source text: In Vitro Test for the Ability to Inhibit Cholesteryl Ester Transfer
1. Preparation of Cholesteryl Ester Donor
In order to prepare a cholesteryl ester donor to be used in the test, a radiolabeled recombinant HDL containing [^3H]-cholesteryl oleate (GE healthcare, TRK886, 3.5 μCi/mg of apoA-1) and apoA-1 was synthesized. Then, rHDL-agarose obtained by immobilizing the recombinant HDL with CNBr-activated Sepharose 4B resin (Amersham Biosciences, Sweden) was used in the test.
2. Cholesteryl Ester Transfer Test
As a source of cholesteryl ester transfer protein, plasma from healthy humans was used, and as cholesteryl ester receptor, LDL from healthy humans was used. Each of test compounds was added to be final concentrations of 16, 80, 400, 2000 and 10000 nM and tested in duplicate. In order to test cholesteryl ester transfer, 20 μl of plasma, 50 μl of LDL (0.25 mg/ml) and 50 μl of rHDL-agarose (0.25 mg/ml) were mixed with each other, and a solution of each test compound was added thereto and reacted thereto at 37° C. Then, the reaction solution was centrifuged at 4° C. for 3 minutes, thereby the reaction was stopped. 150 μl of the supernatant was transferred into a 96-well plate for radioactivity measurement, and the radioactivity thereof was measured with a beta-ray detector.
3. Statistical Processing
The ratio of [^3H]-cholesteryl oleate transferred from HDL to LDL was determined, and based on the determined ratio, the IC50 value of each compound was determined using GraphPad Prism 5.0.

| SMILES | IC50 |
| --- | --- |
| COc1cc(F)c(C(C)C)cc1C1=C(CN2C(=O)O[C@H](c3cc(C(F)(F)F)cc(C(F)(F)F)c3)[C@@H]2C)CC(F)(F)CC1 [Compound 123, (4S,5R)-5-(3,5-bis(trifluoromethyl)phenyl)-3-((5,5-difluoro-2-(4-fluoro-5-isopropyl-2-methoxyphenyl)cyclohex-1-enyl)methyl)-4-methyloxazolidin-2-one] | 20 nM |
| COC(=O)N(C)c1ccc(OC)c(C2=C(CN3C(=O)O[C@H](c4cc(C(F)(F)F)cc(C(F)(F)F)c4)[C@@H]3C)CC(C)(C)CC2)c1 [Compound 124, methyl 3-(2-(((4S,5R)-5-(3,5-bis(trifluoromethyl)phenyl)-4-methyl-2-oxooxazolidin-3-yl)methyl)-4,4-dimethylcyclohex-1-enyl)-4-methoxyphenyl(methyl)carbamate] | 20 nM |
| COc1ccc(N(C)S(C)(=O)=O)cc1C1=C(CN2C(=O)O[C@H](c3cc(C(F)(F)F)cc(C(F)(F)F)c3)[C@@H]2C)CC(C)(C)CC1 [Compound 128, N-(3-(2-(((4S,5R)-5-(3,5-bis(trifluoromethyl)phenyl)-4-methyl-2-oxooxazolidin-3-yl)methyl)-4,4-dimethylcyclohex-1-enyl)-4-methoxyphenyl)-N-methylmethanesulfonamide] | 60 nM |
| COc1ccc(N(C)C(=O)CC(F)(F)F)cc1C1=C(CN2C(=O)O[C@H](c3cc(C(F)(F)F)cc(C(F)(F)F)c3)[C@@H]2C)CC(C)(C)CC1 [Compound 130, N-(3-(2-(((4S,5R)-5-(3,5-bis(trifluoromethyl)phenyl)-4-methyl-2-oxooxazolidin-3-yl)methyl)-4,4-dimethylcyclohex-1-enyl)-4-methoxyphenyl)-3,3,3-trifluoro-N-methylpropanamide] | 20 nM |
| COc1ccc(NS(=O)(=O)C(F)(F)F)cc1C1=C(CN2C(=O)O[C@H](c3cc(C(F)(F)F)cc(C(F)(F)F)c3)[C@@H]2C)CC(C)(C)CC1 [Compound 137, N-(3-(2-(((4S,5R)-5-(3,5-bis(trifluoromethyl)phenyl)-4-methyl-2-oxooxazolidin-3-yl)methyl)-4,4-dimethylcyclohex-1-enyl)-4-methoxyphenyl)trifluoromethanesulfonamide] | 80 nM |
| COc1ccc(C(O)(C(F)(F)F)C(F)(F)F)cc1C1=C(CN2C(=O)O[C@H](c3cc(C(F)(F)F)cc(C(F)(F)F)c3)[C@@H]2C)CC(C)(C)CC1 [Compound 181, (4S,5R)-5-(3,5-bis(trifluoromethyl)phenyl)-3-((2-(5-(1,1,1,3,3,3-hexafluoro-2-hydroxypropan-2-yl)-2-methoxyphenyl)-5,5-dimethylcyclohex-1-enyl)methyl)-4-methyloxazolidin-2-one] | 50 nM |
| COc1ccc(C(OC)(C(F)(F)F)C(F)(F)F)cc1C1=C(CN2C(=O)O[C@H](c3cc(C(F)(F)F)cc(C(F)(F)F)c3)[C@@H]2C)CC(C)(C)CC1 [Compound 182, (4S,5R)-5-(3,5-bis(trifluoromethyl)phenyl)-3-((2-(5-(1,1,1,3,3,3-hexafluoro-2-methoxypropan-2-yl)-2-methoxyphenyl)-5,5-dimethylcyclohex-1-enyl)methyl)-4-methyloxazolidin-2-one] | 50 nM |
| COc1cc(F)c(C(C)=O)cc1C1=C(CN2C(=O)O[C@H](c3cc(C(F)(F)F)cc(C(F)(F)F)c3)[C@@H]2C)CC(C)(C)CC1 [Compound 184, (4S,5R)-3-((2-(5-acetyl-4-fluoro-2-methoxyphenyl)-5,5-dimethylcyclohex-1-enyl)methyl)-5-(3,5-bis(trifluoromethyl)phenyl)-4-methyloxazolidin-2-one] | 20 nM |
| COc1ccc(C2=NCCO2)cc1C1=C(CN2C(=O)O[C@H](c3cc(C(F)(F)F)cc(C(F)(F)F)c3)[C@@H]2C)CC(C)(C)CC1 [Compound 185, (4S,5R)-5-(3,5-bis(trifluoromethyl)phenyl)-3-((2-(5-(4,5-dihydrooxazol-2-yl)-2-methoxyphenyl)-5,5-dimethylcyclohex-1-enyl)methyl)-4-methyloxazolidin-2-one] | 180 nM |
| COc1ccc(C2=N[C@H](C(C)C)CO2)cc1C1=C(CN2C(=O)O[C@H](c3cc(C(F)(F)F)cc(C(F)(F)F)c3)[C@@H]2C)CC(C)(C)CC1 [Compound 188, (4S,5R)-5-(3,5-bis(trifluoromethyl)phenyl)-3-((2-(5-((R)-4-isopropyl-4,5-dihydrooxazol-2-yl)-2-methoxyphenyl)-5,5-dimethylcyclohex-1-enyl)methyl)-4-methyloxazolidin-2-one] | 120 nM |
| COc1ccc(C2(C#N)CC2)cc1C1=C(CN2C(=O)O[C@H](c3cc(C(F)(F)F)cc(C(F)(F)F)c3)[C@@H]2C)CC(C)(C)CC1 [Compound 189, 1-(3-(2-(((4S,5R)-5-(3,5-bis(trifluoromethyl)phenyl)-4-methyl-2-oxooxazolidin-3-yl)methyl)-4,4-dimethylcyclohex-1-enyl)-4-methoxyphenyl)cyclopropanecarbonitrile] | 20 nM |
| COc1ccc(C2(C(N)=O)CC2)cc1C1=C(CN2C(=O)O[C@H](c3cc(C(F)(F)F)cc(C(F)(F)F)c3)[C@@H]2C)CC(C)(C)CC1 [Compound 190, 1-(3-(2-(((4S,5R)-5-(3,5-bis(trifluoromethyl)phenyl)-4-methyl-2-oxooxazolidin-3-yl)methyl)-4,4-dimethylcyclohex-1-enyl)-4-methoxyphenyl)cyclopropanecarboxamide] | 10 nM |
| COc1cc(F)c(C(=O)C(F)(F)F)cc1C1=C(CN2C(=O)O[C@H](c3cc(C(F)(F)F)cc(C(F)(F)F)c3)[C@@H]2C)CC(C)(C)CC1 [Compound 191, (4S,5R)-5-(3,5-bis(trifluoromethyl)phenyl)-3-((2-(4-fluoro-2-methoxy-5-(2,2,2-trifluoroacetyl)phenyl)-5,5-dimethylcyclohex-1-enyl)methyl)-4-methyloxazolidin-2-one] | 90 nM |
| COc1cc(F)c(C(=O)C2CC2)cc1C1=C(CN2C(=O)O[C@H](c3cc(C(F)(F)F)cc(C(F)(F)F)c3)[C@@H]2C)CC(C)(C)CC1 [Compound 192, (4S,5R)-5-(3,5-bis(trifluoromethyl)phenyl)-3-((2-(5-(cyclopropanecarbonyl)-4-fluoro-2-methoxyphenyl)-5,5-dimethylcyclohex-1-enyl)methyl)-4-methyloxazolidin-2-one] | 60 nM |
| COc1ccc(C(F)(F)F)cc1C1=C(CN2C(=O)O[C@H](c3cc(C(F)(F)F)cc(C(F)(F)F)c3)[C@@H]2C)CC(C(F)(F)F)CC1 (stereo partly drawn) [Compound 193, (4S,5R)-5-(3,5-bis(trifluoromethyl)phenyl)-3-((2-(2-methoxy-5-(trifluoromethyl)phenyl)-5-(trifluoromethyl)cyclohex-1-enyl)methyl)-4-methyloxazolidin-2-one] | 40 nM |
| COc1ccc([N+](=O)[O-])cc1C1=C(CN2C(=O)O[C@H](c3cc(C(F)(F)F)cc(C(F)(F)F)c3)[C@@H]2C)CC(C(F)(F)F)CC1 (stereo partly drawn) [Compound 194, (4S,5R)-5-(3,5-bis(trifluoromethyl)phenyl)-3-((2-(2-methoxy-5-nitrophenyl)-5-(trifluoromethyl)cyclohex-1-enyl)methyl)-4-methyloxazolidin-2-one] | 100 nM |
| COc1ccc(N)cc1C1=C(CN2C(=O)O[C@H](c3cc(C(F)(F)F)cc(C(F)(F)F)c3)[C@@H]2C)CC(C(F)(F)F)CC1 (stereo partly drawn) [Compound 195, (4S,5R)-3-((2-(5-amino-2-methoxyphenyl)-5-(trifluoromethyl)cyclohex-1-enyl)methyl)-5-(3,5-bis(trifluoromethyl)phenyl)-4-methyloxazolidin-2-one] | 840 nM |
| COc1ccc(NC(C)=O)cc1C1=C(CN2C(=O)O[C@H](c3cc(C(F)(F)F)cc(C(F)(F)F)c3)[C@@H]2C)CC(C(F)(F)F)CC1 (stereo partly drawn) [Compound 196, N-(3-(2-(((4S,5R)-5-(3,5-bis(trifluoromethyl)phenyl)-4-methyl-2-oxooxazolidin-3-yl)methyl)-4-(trifluoromethyl)cyclohex-1-enyl)-4-methoxyphenyl)acetamide] | 490 nM |
| COc1cc(C(F)(F)F)c(N(C)S(=O)(=O)C(F)(F)F)cc1C1=C(CN2C(=O)O[C@H](c3cc(C(F)(F)F)cc(C(F)(F)F)c3)[C@@H]2C)CC(C)(C)CC1 [Compound 209, N-(5-(2-(((4S,5R)-5-(3,5-bis(trifluoromethyl)phenyl)-4-methyl-2-oxooxazolidin-3-yl)methyl)-4,4-dimethylcyclohex-1-enyl)-4-methoxy-2-(trifluoromethyl)phenyl)trifluoro-N-methylmethanesulfonamide] | 10 nM |
